Legend:
[1] = tested on: dogs with acute left ventricular failure; test: MUGR ejection fraction in dogs with acute left ventricular failure after coronary embolization; assay type: in vivo; details: another dog, 0.2 mg/Kg/min
canine = test: Effect of berberine after intravenous propanolol, 12 canine experiments; assay type: in vivo; details: intravenous propanolol (1 mg/kg)
Excerpt: The mechanism of berberine is dissimilar to that of beta-adrenergic agonists, which while increasing contractility, increase heart rate also. […] Berberine differs also from digitalis because it reduces peripheral resistance in the non-failing heart.

dog = test: Protocol M simile: high or repetitive infusions in single dogs; assay type: in vivo
Procedure: It is noted that the dP/dt increased by 350% after the eighth dose and dF/dt by 450%.
In one dog using protocol M simile, 240 mg/Kg of berberine HCI was administered and dP/dt increased by 75%, aortic flow by 67%, heart rate fell from 150 to 114 beats/min., diastolic aortic pressure fell from 92 to 67 mmHg, and left atrial pressure fell from 8.5 to 7.5 mmHg.
When this type of experiment was repeated with tetrahydropalmatine, a first dose of 3.5 mg/Kg was given without maintaining the pressure constant and arterial pressure fell from 142/115 to 118/90 mmHg. When the second infusion was given with constant pressure, dP/dt increased by 17%.

LD50 = details: cat, in vivo
[2] = tested on: patient with cardiomyopathy; test: Berberine in one patient with cardiomyopathy in irreversible cardiogenic shock; assay type: in vivo
Procedure: In the last two hours before berberine it was not measurable. […] Stroke volume was 20 ml and then 36 and then 36 ml.

dogs [3] = test: Myocardial oxygen consumption (MV02) and epicardial ST segment elevation experiments; assay type: in vivo; details: for myocardial oxygen consumption and myocardial injury: dogs, varying dosages
Excerpt: These changes were due to lower. myocardial oxygen consumption during the occlusion with berberine treatment. […] This is quite an advanageous therapeutic combination of properties which further distinguish the compounds used in the invention from the conventional drugs.

Solubility = assay type: physicochemical
Procedure: The solubility of berberine and other similar compounds of the invention may be altered by changing the pH of the solution having each compound its optimum of pH as far as solubility.
The protoberine alkaloids are administered in the manner most appropriate under the circumstances. Administration may be oral, sublingual, subcutaneous, transdermal or intramuscular injection. The compounds may be administered by intravenous route, parenterally.

dogs [4] = test: Protocol RK, single dose: dose response on systemic arterial pressure and heart rate; assay type: in vivo; details: for average fall in mean arterial pressure: 90 minutes after injection
Procedure: In 4 groups of dogs instrumented as in the last series of experiments (Protocol RK) the effects of increasing dose response on systemic arterial pressure was examined. The only difference from that protocol was that only one dose of berberine (as opposed to two) was administered.
The effects on the measured parameters is dose responsive. In four groups of dogs, the changes in blood pressure were analyzed. The dosage administered was7.5,15,30 and 70 mg/Kg. It was observed that generally blood pressure drop was most marked in the first 5 minutes. After 90 minutes following the injection (when the experiment wad discontinued), the average fall in mean arterial pressure in the group which received 15 mg/Kg was 19 mmHg; in the group that received 30 mg/Kg it was 37 mmHg and in the group that received 70 mg/Kg it was 63 mmHg.

[5] = tested on: anesthetized closed chest dogs; test: Association of ouabain and berberine on contractility (LV dP/dt), constant systolic pressure; assay type: in vivo; details: for increase of LV dP/dt, of the initial LV dP/dt: berberine 0.7 mg/Kg/min after ouabain; for increases in dP/dt: only berberine 0.7 mg/Kg/min without digitalis
Procedure: In anesthetized closed chest dogs the systolic arterial pressure was maintained constant with a reservoir full of heparinized blood (as in protocol "M" and "Z" described above) and a "pigtail" and Millar catheter were introduced into the left ventricular cavity (as in protocol "Z" and "HV", described above). All data was recorded on 8 channel polygraph (Gould Instruments) with a paper speed of 200 mm/s when necessary and at 2 mm/s constantly.

[6] = tested on: patients with heart failure; test: Intravenous berberine in patients with heart failure, catheterization laboratory; assay type: in vivo
Procedure: Berberine HCI was used in patients with heart failure. […] The observations were done in a catheterization laboratory. […] Heart rate decreased in two patients and increased in one. On the average it decreased from 82 to 76 beats/min after 0.02 mg/kg/min and to 79 after 0.2 mg/kg/min. […] It is very impressive that in one patient it fell from 21 to 11 and then to 9 mmHg. Aortic systolic pressure fell from 115 mmHg to 104 and then to 108 mmHg. Aortic diastolic pressure fell from 78 to 68 and then to 67 mmHg. Aortic mean pressure fell from 93 to 80 to 84 mmHg. This is a mild fall in mean aortic pressure. […] These are very marked increases in cardiac output and cardiac index. […] These increases are again very remarkable. […] Thus, the 5 last […] indicated the profound aemelioration in ventricular performance. […] Contractility was evaluated by the indices LV-V max (left ventricular maximal shortening velocity of the contractile element) and LV-VPM (left ventricular peak measured shortening velocoty of the contracile elements).

[7] = one dog, after the eighth dose, 0.7 mg/kg/min repeated up to 56 mg/Kg

COc1ccc2cc3[n+](cc2c1OC)CCc1cc2c(cc1-3)OCO2 [berberine]
EF ([1]; at 20): 55% | EF ([1]; at 30): 55% | effect on contractility, arterial pressure or heart rate after beta blockade (canine): did not change the effect of berberine | arrhythmias (dog; one dog, 240 mg/Kg): No arrhythmias were noted | increase of aortic flow (dog; one dog, 240 mg/Kg): 67% | increase of dP/dt (dog; one dog, 240 mg/Kg): 75% | left atrial pressure (dog; one dog, 240 mg/Kg, from 8.5): 7.5 mmHg | diastolic aortic pressure (dog; one dog, 240 mg/Kg, from 92): 67 mmHg | heart rate (dog; one dog, 240 mg/Kg, from 150): 114 beats/min | increase of dF/dt (dog; [7]): 450% | increase of dP/dt (dog; [7]): 350% | arrhythmias (dog; one dog, up to 56 mg/Kg): No arrhythmias were observed | LD50 (LD50): ~55 mg/kg | cardiac output ([2]; 0.2 and 0.4 mg/kg/min, after 30 minutes, from 1.2): 3.5 L/min | increase of cardiac output ([2]; after 30 minutes): 192% | cardiac output ([2]; after 90 minutes): 2.2 L/min | increase of cardiac output ([2]; after 90 minutes): 82% | Stroke volume ([2]; first value after berberine, from 20 ml): 36 mL | Stroke volume ([2]; second value after berberine): 36 mL | epicardial ST segment elevations (dogs [3]; after coronary artery occlusion): did not change them | myocardial injury (epicardial ST segment elevations) (dogs [3]; consecutive occlusions, 0.2 mg/kg/min, vs control occlusion, pilot experiments): less myocardial injury | myocardial oxygen consumption (dogs [3]; dogs with acute left ventricular failure, effect greater than that of ouabain): significantly reduced | myocardial oxygen consumption (dogs [3]; dogs without coronary artery occlusion): reduction in myocardial oxygen consumption | mycardial oxygen consumption (MV02) (dogs [3]; non-failing heart, 0.02 mg/kg.min): did not change | solubility as a function of pH (Solubility): increases when pH is lowered towards acidity | solubility in sugar solutions (Solubility): soluble (among others) in sugar solutions | decrease of heart rate (dogs [4]; 7.5 mg/Kg): 20 beats/min | decrease of heart rate (dogs [4]; 15 mg/Kg): 16 beats/min | average fall in mean arterial pressure (dogs [4]; 15 mg/Kg): 19 mmHg | average fall in mean arterial pressure (dogs [4]; 30 mg/Kg): 37 mmHg | decrease of heart rate (dogs [4]; 35 mg/Kg): 40 beats/min | decrease of heart rate (dogs [4]; 70 mg/Kg): 103 beats/min | average fall in mean arterial pressure (dogs [4]; 70 mg/Kg): 63 mmHg | primary arrhythmias (dogs [4]; 7.5 to 70 mg/Kg): No primary arrhythmias were obtained | increase of LV dP/dt, of the initial LV dP/dt ([5]; 5 minutes): 87±10% | increase of LV dP/dt, of the initial LV dP/dt ([5]; 10 minutes): 82±13% | increase of LV dP/dt, of the initial LV dP/dt ([5]; 15 minutes): 87±13% | increase of LV dP/dt, of the initial LV dP/dt ([5]; 20 minutes): 95±16% | increase of LV dP/dt, of the initial LV dP/dt ([5]; 25 minutes): 96±16% | increase of LV dP/dt, of the initial LV dP/dt ([5]; 30 minutes): 94±14% | combined effect with ouabain on contractility ([5]; dog, in vivo): more than additive but synergistic | increases in dP/dt ([5]; 5 minutes): 30±4% | increases in dP/dt ([5]; 10 minutes): 36±3% | increases in dP/dt ([5]; 15 minutes): 39±3% | increases in dP/dt ([5]; 20 minutes): 42±5% | increases in dP/dt ([5]; 25 minutes): 39±5% | increases in dP/dt ([5]; 30 minutes): 40±7% | side effects ([6]; 0.002 mg/kg/min 30 minutes then 0.02 mg/kg/min 30 minutes, 3 patients): without untoward side effects | side effects ([6]; 0.2 mg/kg/min, one patient): without untoward side effects | side effects ([6]; 3 patients with cardiomyopathy, 0.02 then 0.2 mg/kg/min, 15 minutes each): None of the patients had side effects | cardiac index ([6]; after 0.02 mg/kg/min, from 2.9): 3.7 fiters/min/m^2 | cardiac output ([6]; after 0.02 mg/kg/min, from 5.1): 6.6 L/min | Left ventricular end diastolic pressure ([6]; after 0.02 mg/kg/min, from 22): 16 mmHg | ejection fraction ([6]; after 0.02 mg/kg/min, from 32): 36% | stroke index ([6]; after 0.02 mg/kg/min, from 36): 50 ml/m^2 | Stroke volume ([6]; after 0.02 mg/kg/min, from 62): 89 mL | Aortic diastolic pressure ([6]; after 0.02 mg/kg/min, from 78): 68 mmHg | Heart rate, average ([6]; after 0.02 mg/kg/min, from 82): 76 beats/min | Aortic mean pressure ([6]; after 0.02 mg/kg/min, from 93): 80 mmHg | Aortic systolic pressure ([6]; after 0.02 mg/kg/min, from 115): 104 mmHg | Left ventricular systolic pressure ([6]; after 0.02 mg/kg/min, from 116): 106 mmHg | Calculated systemic peripheral resistance ([6]; after 0.02 mg/kg/min, from 1339): 883 10^-5N·S·cm^-5 | Aortic diastolic pressure ([6]; after 0.2 mg/kg/min): 67 mmHg | Aortic mean pressure ([6]; after 0.2 mg/kg/min): 84 mmHg | Aortic systolic pressure ([6]; after 0.2 mg/kg/min): 108 mmHg | Calculated systemic peripheral resistance ([6]; after 0.2 mg/kg/min): 794 10^-5N·S·cm^-5 | Heart rate, average ([6]; after 0.2 mg/kg/min): 79 beats/min | Left ventricular end diastolic pressure ([6]; after 0.2 mg/kg/min): 15 mmHg | Left ventricular systolic pressure ([6]; after 0.2 mg/kg/min): 110 mmHg | Stroke volume ([6]; after 0.2 mg/kg/min): 102 mL | cardiac index ([6]; after 0.2 mg/kg/min): 4.2 fiters/min/m^2 | cardiac output ([6]; after 0.2 mg/kg/min): 7.4 L/min | ejection fraction ([6]; after 0.2 mg/kg/min): 40% | stroke index ([6]; after 0.2 mg/kg/min): 58 ml/m^2 | LV-VPM (left ventricular peak measured shortening velocoty of the contracile elements) ([6]; after berberine, from 0.7): 0.9 | LV-V max (left ventricular maximal shortening velocity of the contractile element) ([6]; after berberine, from 0.9): 1.1 | Left ventricular end diastolic pressure ([6]; one patient, after 0.02 mg/kg/min, from 21): 11 mmHg | Left ventricular end diastolic pressure ([6]; one patient, after 0.2 mg/kg/min): 9 mmHg

COc1ccc2cc3[n+](cc2c1O)CCc1cc2c(cc1-3)OCO2 [berberrubine]
myocardial oxygen consumption and myocardial injury (dogs [3]): reduction on myocardial oxygen consumption and less myocardial injury than the control | result in the association with ouabain ([5]; dog, in vivo): perform in the same manner

COc1cc2c(cc1O)C[C@H]1c3cc(O)c(OC)cc3CCN1C2 [coreximine]
result when the experiments are repeated (dog; dog, in vivo): comparable results are obtained | myocardial oxygen consumption and myocardial injury (dogs [3]): reduction on myocardial oxygen consumption and less myocardial injury than the control | result in the association with ouabain ([5]; dog, in vivo): perform in the same manner

Reference: EP0108147B1, “Use of a protoberberine alkaloid and composition containing same” (MAROKO, Peter R., priority 1982, dated 1983)
